Measured values taken from ChEMBL document CHEMBL1150583, “New isoflavone and triterpene glycosides from soybeans” (2002).
In brackets after ≈: the same amount, converted by molar mass.

Key:
Type in all cases: functional
[1] = Cytotoxicity against human Hs 740.T cells after 6 days by MTT assay; conditions: 144 h, read-out: ED50 (the source's name)
[2] = Cytotoxicity against human Hs 746T cells after 6 days by MTT assay; conditions: Hs746T, 144 h, read-out: ED50 (the source's name)
[3] = Cytotoxicity against human Hs 578T cells after 6 days by MTT assay; conditions: 144 h, read-out: ED50 (the source's name)
[4] = Cytotoxicity against human Hs 742.T cells after 6 days by MTT assay; conditions: 144 h, read-out: ED50 (the source's name)
DU-145 = test: Cytotoxicity against human DU145 cells after 6 days by MTT assay; conditions: DU-145, 144 h, read-out: ED50 (the source's name)
[5] = Cytotoxicity against human LNCaP-FGC cells after 6 days by MTT assay; conditions: LNCaP-Clone-FGC, 144 h, read-out: ED50 (the source's name)

C[C@@H]1O[C@@H](O[C@H]2[C@H](O[C@H]3[C@H](O[C@H]4CC[C@@]5(C)[C@@H](CC[C@]6(C)[C@@H]5CC=C5[C@@H]7CC(C)(C)C[C@@H](O[C@@H]8O[C@H](CO)[C@@H](O)[C@H](O)[C@H]8O[C@@H]8O[C@@H](C)[C@H](O)[C@@H](O)[C@H]8O)[C@]7(C)CC[C@]56C)[C@]4(C)CO)O[C@H](C(=O)O)[C@@H](O)[C@@H]3O)O[C@H](CO)[C@H](O)[C@@H]2O)[C@H](O)[C@H](O)[C@H]1O
EC50 [1]: 4.1 mg/L (≈ 3.28 µM)
EC50 [2]: 3.94 mg/L (≈ 3.15 µM)
EC50 [3]: 2.12 mg/L (≈ 1.69 µM)
EC50 [4]: 14.6 mg/L (≈ 11.7 µM)
EC50 (DU-145): 3.25 mg/L (≈ 2.6 µM)
EC50 [5]: 24.1 mg/L (≈ 19.3 µM)

COc1ccc(-c2coc3cc(O[C@@H]4O[C@H](COC(C)=O)[C@@H](O)[C@H](O)[C@H]4OC(C)=O)ccc3c2=O)cc1
EC50 [1]: 7.61 mg/L (≈ 14.8 µM)
EC50 [2]: 8.89 mg/L (≈ 17.3 µM)
EC50 [3]: 5.44 mg/L (≈ 10.6 µM)
EC50 [4]: 25.5 mg/L (≈ 49.6 µM)
EC50 (DU-145): 4.18 mg/L (≈ 8.12 µM)
EC50 [5]: 22.1 mg/L (≈ 43 µM)

C[C@@H]1O[C@@H](O[C@H]2[C@H](O[C@@H]3CC(C)(C)C[C@H]4C5=CC[C@@H]6[C@@]7(C)CC[C@H](O[C@@H]8O[C@H](C(=O)O)[C@@H](O)[C@H](O)[C@H]8O[C@@H]8O[C@H](CO)[C@H](O)[C@H](O)[C@H]8O[C@@H]8O[C@@H](C)[C@H](O)[C@@H](O)[C@H]8O)[C@@](C)(CO)[C@@H]7CC[C@@]6(C)[C@]5(C)CC[C@@]34C)OC[C@H](O)[C@@H]2O)[C@H](O)[C@H](O)[C@H]1O
EC50 [1]: 3.53 mg/L (≈ 2.89 µM)
EC50 [2]: 2.47 mg/L (≈ 2.02 µM)
EC50 [3]: 2.39 mg/L (≈ 1.96 µM)
EC50 [4]: 17.5 mg/L (≈ 14.3 µM)
EC50 (DU-145): 3.12 mg/L (≈ 2.55 µM)
EC50 [5]: 27.5 mg/L (≈ 22.5 µM)

CC1(C)C[C@@H](O)[C@]2(C)CC[C@]3(C)C(=CC[C@@H]4[C@@]5(C)CC[C@H](O[C@@H]6O[C@H](C(=O)O)[C@@H](O)[C@H](O)[C@H]6O)[C@@](C)(CO)[C@@H]5CC[C@]43C)[C@@H]2C1 [3-O-[BETA-D-GLUCURONOPYRANOSYL]SOYASAPOGENOL B]
EC50 [1]: 9.61 mg/L (≈ 15.1 µM)
EC50 [2]: 9.59 mg/L (≈ 15.1 µM)
EC50 [3]: 8.77 mg/L (≈ 13.8 µM)
EC50 [4]: 28.7 mg/L (≈ 45.2 µM)
EC50 (DU-145): 9.13 mg/L (≈ 14.4 µM)
EC50 [5]: 37.3 mg/L (≈ 58.7 µM)

CC1(C)C[C@@H](O)[C@]2(C)CC[C@]3(C)C(=CC[C@@H]4[C@@]5(C)CC[C@H](O[C@@H]6O[C@H](C(=O)O)[C@@H](O)[C@H](O)[C@H]6O[C@@H]6O[C@H](CO)[C@H](O)[C@H](O)[C@H]6O[C@@H]6O[C@H](CO)[C@@H](O)[C@H](O)[C@H]6O)[C@@](C)(CO)[C@@H]5CC[C@]43C)[C@@H]2C1 [3-O-[BETA-DGLUCOPYRANOSYL-(1->2)-BETA-D-GALACTOPYRANOSYL(1->2)-BETA-DGLUCURONOPYRANOSYL]SOYASAPOGENOL B]
EC50 [1]: 8.97 mg/L (≈ 9.35 µM)
EC50 [2]: 7.36 mg/L (≈ 7.67 µM)
EC50 [3]: 9.87 mg/L (≈ 10.3 µM)
EC50 [4]: 31.6 mg/L (≈ 32.9 µM)
EC50 (DU-145): 5.75 mg/L (≈ 5.99 µM)
EC50 [5]: 40.7 mg/L (≈ 42.4 µM)

O=C1c2ccc(O[C@@H]3O[C@H](CO)[C@@H](O)[C@H](O)[C@H]3O)cc2OCC1c1ccc(O)cc1 (stereo partly drawn) [DIHYDRODAIDZIN]
EC50 [1]: 17.4 mg/L (≈ 41.5 µM)
EC50 [2]: 14.9 mg/L (≈ 35.7 µM)
EC50 [3]: 28.2 mg/L (≈ 67.5 µM)
EC50 [4]: 33.6 mg/L (≈ 80.2 µM)
EC50 (DU-145): 9.16 mg/L (≈ 21.9 µM)
EC50 [5]: 32.5 mg/L (≈ 77.6 µM)

O=C1c2c(O)cc(O[C@@H]3O[C@H](CO)[C@@H](O)[C@H](O)[C@H]3O)cc2OCC1c1ccc(O)cc1 (stereo partly drawn) [DIHYDROGENISTIN]
EC50 [1]: 15.1 mg/L (≈ 34.8 µM)
EC50 [2]: 12.2 mg/L (≈ 28.2 µM)
EC50 [3]: 15.4 mg/L (≈ 35.4 µM)
EC50 [4]: 30.8 mg/L (≈ 70.9 µM)
EC50 (DU-145): 10.2 mg/L (≈ 23.6 µM)
EC50 [5]: 41.6 mg/L (≈ 95.7 µM)

O=c1c(-c2ccc(O)cc2)coc2cc(O)cc(O)c12 [GENISTEIN]
EC50 [1]: 4.38 mg/L (≈ 16.2 µM)
EC50 [2]: 5.82 mg/L (≈ 21.5 µM)
EC50 [3]: 3.5 mg/L (≈ 13 µM)
EC50 [4]: 14.9 mg/L (≈ 55.1 µM)
EC50 (DU-145): 2.39 mg/L (≈ 8.84 µM)
EC50 [5]: 25.4 mg/L (≈ 94.2 µM)
